Measurements published in patent US8158560B2, “Insecticidal arylpyrroline compounds” (Bayer CropScience AG, priority 2009, dated 2012).

What was measured:
Format in all cases: in vivo
Aulacophora femoralis = assay: Biological Test Example 3: test against cucurbit leaf beetle (Aulacophora femoralis), cucumber leaf dip; conditions: foliar, 168 h, active compound concentration 100 ppm, second instar larvae, after 7 days, read-out: insecticidal activity
Experimental: (§1) Unless not mentioned otherwise, the test solutions were prepared as follows:
(§2) Containing as solvent: Dimethylformamide, 3 parts by weight; and as emulsifier: Polyoxyethylene alkyl phenyl ether, 1 part by weight
(§3) To prepare the test solution, 1 part by weight of an active compound is mixed with the above-mentioned amount of solvent containing the above-mentioned amount of emulsifier, and the mixture is diluted with water to the desired concentration.
Test Against Cucurbit Leaf Beetle (Aulacophora femoralis)
Leaves of cucumber were immersed in the test solution at the appropriate concentration, and the leaves were dried in air. The leaves were then put in a plastic cup containing sterilized black soil and five Aulacophora femoralis at second instar larvae were released in the cup. The cups were placed in a temperature-controlled chamber at 25° C. After 7 days, the number of dead larvae was counted, and the insecticidal activity was calculated. An insecticidal activity of 100% means that all larvae were killed, whereas an insecticidal activity of 0% means that no larva was killed.

Spodoptera litura = assay: Biological Test Example 1: test against tobacco cutworm (Spodoptera litura) larvae, sweet potato leaf dip; conditions: foliar, 168 h, active compound concentration 100 ppm, third instar larvae, after 7 days, read-out: insecticidal activity
Experimental: as §1, §2, §3
Test Against Tobacco Cutworm (Spodoptera litura) Larvae
Leaves of sweet potato were immersed in the test solution at the appropriate concentration, and the leaves were dried in air. The leaves were then placed in a petri dish having a diameter of 9 cm, and ten Spodoptera litura at third instar larvae were released therein. The petri dishes were placed in a temperature-controlled chamber at 25° C.
After 2 days and 4 days more sweet potato leaves were added. After 7 days, the number of dead larvae was counted and the insecticidal activity was calculated. An insecticidal activity of 100% means that all larvae were killed, whereas an insecticidal activity of 0% means that no larva was killed. In the current test, the results of two petri dishes for each treatment were averaged.

Tetranychus urticae = assay: Biological Test Example 2: test against two-spotted spider mite (Tetranychus urticae), spray on kidney bean; conditions: 168 h, active compound concentration 100 ppm, adult mites, after 7 days, read-out: acaricidal activity
Experimental: as §1, §2, §3
Test Against Two-Spotted Spider Mite (Tetranvchus urticae)
50 to 100 adult mites of Tetranychus urticae were inoculated to leaves of kidney bean at two-leaf stage planted in a pot of 6 cm in diameter. After one day, test solution at the appropriate concentration was sprayed thereon in a sufficient amount using a spray gun. After the spraying, the plant pot was placed inside a greenhouse, and after 7 days, the acaricidal activity was calculated. An acaricidal activity of 100% means that all mites were killed, whereas an acaricidal activity of 0% means that no mite was killed.

[1] = system: organic phosphorus agent- and carbamate agent-resistant Myzus persicae; assay: Biological Test Example 4: test against organic phosphorus agent- and carbamate agent-resistant green peach aphid (Myzus persicae), spray on eggplant; conditions: active compound concentration 100 ppm; after 7 days
Experimental: as §1, §2, §3
Test Against Organic Phosphorus Agent- and Carbamate Agent Resistant Green Peach Aphid (Myzus persicae)
50 to 100 head of organic phosphorous agent- and carbamate agent-resistant Myzus persicae were inoculated to leaves of eggplant at two-leaf stage, planted in a pot of 6 cm in diameter. After one day, test solution at the appropriate concentration was sprayed thereon in a sufficient amount using a spray gun. After the spraying, the plant pot was placed inside a greenhouse, and after 7 days, the insecticidal rate was calculated.
An insecticidal activity of 100% means that all aphids were killed, whereas an insecticidal activity of 0% means that no aphid was killed.

[2] = system: Spodoptera litura L2 stage; assay: Spodoptera litura root soaking test (PRODLI); conditions: 20 ppm, 4 dat
Experimental: Spodoptera litura—Root Soaking Test (PRODLI)
Insect: Spodoptera litura L2 stage;
Material: Culture media bottles for hydroponics: Plastic (A-PET) cups for test, square type;
Plant: Broccoli 5 leaf stage (ca. 12 cm high), soil around the roots was washed off just before the test;
Solvent pre-mixture “Sorpol SD” for root soaking test;
Sorpol SD: Sorpol BDB:Dimethylformamide=3:3:140
Procedure: Test solutions are prepared in the bottles at the appropriate concentration. The test plant root is dipped into the test solution in the bottle and kept in a test room. After 3 days, ⅓ part of the leaves of the plants is cut and put into the A-PET cup.
Into each test cup five larvae L2 are released, the cup is covered with a lid and stored at 25° C. and at a relative humidity of 50-60% and under 16L8D lighting conditions.
After the specified period of time the mortality in % is determined and the rate of death is calculated.

| Compound | pest or weed control at 100 ppm (Aulacophora femoralis) | pest or weed control at 100 ppm (Spodoptera litura) | pest or weed control at 100 ppm (Tetranychus urticae) | insecticidal activity [1] | Efficacy/day(s) of treatment [2] |
| --- | --- | --- | --- | --- | --- |
| O=C(NC1CSC1)c1ccc(C2=NCC(c3cc(Cl)c(Cl)c(Cl)c3)(C(F)(F)F)C2)cc1Br (centres unmarked) [Compound 1-4, 2-Bromo-N-(thietan-3-yl)-4-[3-(3,4,5-trichlorophenyl)-3-(trifluoromethyl)-3,4-dihydro-2H-pyrrol-5-yl]benzamide] | 100% | 100% |  |  |  |
| O=C(NC1CSC1)c1ccc(C2=NCC(c3cc(C(F)(F)F)cc(C(F)(F)F)c3)(C(F)(F)F)C2)cc1Br (centres unmarked) [Compound 1-104, 4-{3-[3,5-Bis(trifluoromethyl)phenyl]-3-(trifluoromethyl)-3,4-dihydro-2H-pyrrol-5-yl}-2-bromo-N-(thietan-3-yl) benzamide] | 100% | 100% |  |  |  |
| Cc1cc(C2=NCC(c3cc(Cl)c(Cl)c(Cl)c3)(C(F)(F)F)C2)ccc1C(=O)NC1CS(=O)(=O)C1 (centres unmarked) [Compound 1-12, N-(1,1-Dioxidothietan-3-yl)-2-methyl-4-[3-(3,4,5-trichlorophenyl)-3-(trifluoromethyl)-3,4-dihydro-2H-pyrrol-5-yl]benzamide] | 100% | 100% | 100% | 100% |  |
| Cc1cc(C2=NCC(c3cc(Cl)c(Cl)c(Cl)c3)(C(F)(F)F)C2)ccc1C(=O)NC1CSC1 (centres unmarked) [Compound 1-10, 2-methyl-N-(thietan-3-yl)-4-[3-(3,4,5-trichlorophenyl)-3-(trifluoromethyl)-3,4-dihydro-2H-pyrrol-5-yl]benzamide] | 100% | 100% | 100% | 100% |  |
| Cc1cc(C2=NCC(c3cc(Cl)cc(Cl)c3)(C(F)(F)F)C2)ccc1C(=O)NC1CS(=O)(=O)C1 (centres unmarked) [Compound T-1] |  |  |  |  | 100%/4 dat |
| O=C(CNC(=O)c1ccc(C2=NCC(c3cc(Cl)c(Cl)c(Cl)c3)(C(F)(F)F)C2)cc1C(F)(F)F)NC1CSC1 (centres unmarked) [Compound 3-7] | 100% | 100% | 100% |  |  |
| O=C(NC1C[S+]([O-])C1)c1ccc(C2=NCC(c3cc(Cl)c(Cl)c(Cl)c3)(C(F)(F)F)C2)cc1C(F)(F)F (centres unmarked) [Compound 1-8, N-(1-Oxidothietan-3-yl)-4-[3-(3,4,5-trichlorophenyl)-3-(trifluoromethyl)-3,4-dihydro-2H-pyrrol-5-yl]-2-(trifluoromethyl)benzamide] | 100% | 100% | 100% |  |  |
| O=C(NC1CSC1)c1ccc(C2=NCC(c3cc(Cl)c(Cl)c(Cl)c3)(C(F)(F)F)C2)cc1C(F)(F)F (centres unmarked) [Compound 1-7, N-(thietan-3-yl)-4-[3-(3,4,5-trichlorophenyl)-3-(trifluoromethyl)-3,4-dihydro-2H-pyrrol-5-yl]-2-(trifluoromethyl)benzamide] | 100% | 100% | 100% | 100% |  |
| Cc1cc(C2=NOC(c3cc(Cl)cc(Cl)c3)(C(F)(F)F)C2)ccc1C(=O)NC1CS(=O)(=O)C1 (centres unmarked) [ExNo A10 of WO 2009/080250] |  |  |  |  | 0%/4 dat |
| Cc1cc(C2=NCC(c3cc(C(F)(F)F)cc(C(F)(F)F)c3)(C(F)(F)F)C2)ccc1C(=O)NC1CSC1 (centres unmarked) [Compound 1-19, 4-{3-[3,5-Bis(trifluoromethyl)phenyl]-3-(trifluoromethyl)-3,4-dihydro-2H-pyrrol-5-yl}-2-methyl-N-(thietan-3-yl)benzamide] | 100% | 100% | 100% | 100% |  |
| O=C(NC1CSC1)c1ccc(C2=NCC(c3cc(C(F)(F)F)cc(C(F)(F)F)c3)(C(F)(F)F)C2)cc1C(F)(F)F (centres unmarked) [Compound 1-16, 4-{3-[3,5-Bis(trifluoromethyl)phenyl}-3-(trifluoromethyl)-3,4-dihydro-2H-pyrrol-5-yl]-N-(thietan-3-yl)-2-(trifluoromethyl)benzamide] | 100% | 100% | 100% | 100% |  |
| Cc1cc(C2=NCC(c3cc(C(F)(F)F)cc(C(F)(F)F)c3)(C(F)(F)F)C2)ccc1C(=O)NC1C[S+]([O-])C1 (centres unmarked) [Compound 1-20, 4-{3-[3,5-Bis(trifluoromethyl)phenyl]-3-(trifluoromethyl)-3,4-dihydro-2H-pyrrol-5-yl}-2-methyl-N-(1-oxidothietan-3-yl)benzamide] | 100% | 100% | 100% |  |  |
| O=C(CNC(=O)c1ccc(C2=NCC(c3cc(C(F)(F)F)cc(C(F)(F)F)c3)(C(F)(F)F)C2)cc1C(F)(F)F)NC1CSC1 (centres unmarked) [Compound 3-19, 4-{3-[3,5-Bis(trifluoromethyl)phenyl]-3-(trifluoromethyl)-3,4-dihydro-2H-pyrrol-5-yl}-N-[2-oxo-2-(thietan-3-ylamino)ethyl]-2-(trifluoromethyl)benzamide] | 100% | 100% |  |  |  |
| Cc1cc(C2=NCC(c3cc(Cl)c(Cl)c(Cl)c3)(C(F)(F)F)C2)ccc1C(=O)NC1C[S+]([O-])C1 (centres unmarked) [Compound 1-11, 2-Methyl-N-(1-oxidothietan-3-yl)-4-[3-(3,4,5-trichlorophenyl)-3-(trifluoromethyl)-3,4-dihydro-2H-pyrrol-5-yl]benzamide] | 100% | 100% | 100% |  |  |
| O=C(NC1CS(=O)(=O)C1)c1ccc(C2=NCC(c3cc(Cl)c(Cl)c(Cl)c3)(C(F)(F)F)C2)cc1C(F)(F)F (centres unmarked) [Compound 1-9, N-(1,1-Dioxidothietan-3-yl)-4-[3-(3,4,5-trichlorophenyl)-3-(trifluoromethyl)-3,4-dihydro-2H-pyrrol-5-yl]-2-(trifluoromethyl)benzamide] | 100% | 100% | 100% | 100% |  |
